Source: patent publication US8124793B2, “Derivatives of ethylene methanedisulfonate as cancer chemotherapeutic agents” (priority 2007, dated 2012)

Legend:
SF-539 = experiment: NCI screen, growth of human tumor cells: CNS Cancer SF-539; format: cell-based
Outline: (§1)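 The NCI screen tests each compound on human cancer cell lines and reports percent growth. Concentrations are given in molar units; the number of data points per compound is sixty at minimum.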

human cancer cells = experiment: NCI screen summary over the cancers tested (negative growth of human cancer cells); format: cell-based; conditions: cancers with negative growth / cancers tested
Experimental: (§2) In the NCI screening process, each compound was tested and described by a minimum of 60 data points. The test data include, but are not limited to the type of cancer, the molar concentration used in the screen, and the percent growth of the cancer. In some cases, NMR and elemental analysis were used for structural assignment.
The derivatives in the tables are grouped using the same category as in the tables 1-6.

HL-60 (TB) = experiment: NCI screen, growth of human tumor cells: Leukemia HL-60 (TB); format: cell-based; conditions: HL-60 (TB) (Leukemia), 10^−4 molar
Experimental: as §2

K562 = experiment: NCI screen, growth of human tumor cells: Leukemia K562; format: cell-based; conditions: K562 (Leukemia), 10^−4 molar
Outline: as §1

RPMI-8226 = experiment: NCI screen, growth of human tumor cells: Leukemia RPMI-8226; format: cell-based; conditions: RPMI-8226 (Leukemia), 10^−4 molar
Experimental: as §2

SR = experiment: NCI screen, growth of human tumor cells: Leukemia SR; format: cell-based; conditions: SR (Leukemia), 10^−4 molar
Outline: as §1

AS49/ATCC = experiment: NCI screen, growth of human tumor cells: Non-Small Cell Lung AS49/ATCC; format: cell-based; conditions: AS49/ATCC (Non-Small Cell Lung), 10^−4 molar
Experimental: as §2

HOP-62 = experiment: NCI screen, growth of human tumor cells: Non-Small Cell Lung HOP-62; format: cell-based; conditions: HOP-62 (Non-Small Cell Lung), 10^−4 molar
Outline: as §1

NCI-H460 = experiment: NCI screen, growth of human tumor cells: Non-Small Cell Lung NCI-H460; format: cell-based; conditions: NCI-H460 (Non-Small Cell Lung), 10^−4 molar
Outline: as §1

NCI-H23 = experiment: NCI screen, growth of human tumor cells: Non-Small Cell Lung NCI-H23; format: cell-based; conditions: NCI-H23, 10^−4 molar
Experimental: as §2

COLO205 = experiment: NCI screen, growth of human tumor cells: Colon Cancer COLO205; format: cell-based; conditions: COLO205 (Colon Cancer), 10^−4 molar
Experimental: as §2

HCT-116 = experiment: NCI screen, growth of human tumor cells: Colon Cancer HCT-116; format: cell-based; conditions: HCT-116 (Colon Cancer), 10^−4 molar
Experimental: as §2

HCT-15 = experiment: NCI screen, growth of human tumor cells: Colon Cancer HCT-15; format: cell-based; conditions: HCT-15 (Colon Cancer), 10^−4 molar
Outline: as §1

KM12 = experiment: NCI screen, growth of human tumor cells: Colon Cancer KM12; format: cell-based
Experimental: as §2

SF-268 = experiment: NCI screen, growth of human tumor cells: CNS Cancer SF-268; format: cell-based; conditions: SF-268 (CNS Cancer), 10^−4 molar
Outline: as §1

SF-295 = experiment: NCI screen, growth of human tumor cells: CNS Cancer SF-295; format: cell-based; conditions: SF-295 (CNS Cancer), 10^−4 molar
Outline: as §1

SNB-75 = experiment: NCI screen, growth of human tumor cells: CNS Cancer SNB-75; format: cell-based; conditions: SNB-75 (CNS Cancer), 10^−4 molar
Experimental: as §2

U-251 = experiment: NCI screen, growth of human tumor cells: CNS Cancer U-251; format: cell-based; conditions: U-251 (CNS Cancer), 10^−4 molar
Outline: as §1

M14 = experiment: NCI screen, growth of human tumor cells: Melanoma M14; format: cell-based; conditions: M14 (Melanoma), 10^−4 molar
Experimental: as §2

SK-MEL-2 = experiment: NCI screen, growth of human tumor cells: Melanoma SK-MEL-2; format: cell-based
Experimental: as §2

SK-MEL-28 = experiment: NCI screen, growth of human tumor cells: Melanoma SK-MEL-28; format: cell-based; conditions: SK-MEL-28 (Melanoma), 10^−4 molar
Experimental: as §2

SK-MEL-5 = experiment: NCI screen, growth of human tumor cells: Melanoma SK-MEL-5; format: cell-based
Outline: as §1

UACC-62 = experiment: NCI screen, growth of human tumor cells: Melanoma UACC-62; format: cell-based; conditions: UACC-62 (Melanoma), 10^−4 molar
Outline: as §1

OVCAR-3 = experiment: NCI screen, growth of human tumor cells: Ovarian Cancer OVCAR-3; format: cell-based; conditions: OVCAR-3 (Ovarian Cancer), 10^−4 molar
Outline: as §1

OVCAR-4 = experiment: NCI screen, growth of human tumor cells: Ovarian Cancer OVCAR-4; format: cell-based; conditions: OVCAR-4 (Ovarian Cancer), 10^−4 molar
Experimental: as §2

OVCAR-5 = experiment: NCI screen, growth of human tumor cells: Ovarian Cancer OVCAR-5; format: cell-based
Experimental: as §2

ACHN = experiment: NCI screen, growth of human tumor cells: Renal Cancer ACHN; format: cell-based; conditions: ACHN, 10^−4 molar
Outline: as §1

RXF-393 = experiment: NCI screen, growth of human tumor cells: Renal Cancer RXF-393; format: cell-based; conditions: RXF-393 (Renal Cancer), 10^−4 molar
Experimental: as §2

SN12C = experiment: NCI screen, growth of human tumor cells: Renal Cancer SN12C; format: cell-based; conditions: SN12C
Experimental: as §2

UO-31 = experiment: NCI screen, growth of human tumor cells: Renal Cancer UO-31; format: cell-based; conditions: UO-31 (Renal Cancer), 10^−4 molar
Experimental: as §2

DU-145 = experiment: NCI screen, growth of human tumor cells: Prostate Cancer DU-145; format: cell-based
Experimental: as §2

MCF7/ADR-RES = experiment: NCI screen, growth of human tumor cells: Breast Cancer MCF7/ADR-RES; format: cell-based; conditions: MCF7/ADR-RES (Breast Cancer), 10^−4 molar
Experimental: as §2

BT-549 = experiment: NCI screen, growth of human tumor cells: Breast Cancer BT-549; format: cell-based; conditions: BT-549 (Breast Cancer), 10^−4 molar
Experimental: as §2

HS 578T = experiment: NCI screen, growth of human tumor cells: Breast Cancer HS 578T; format: cell-based; conditions: HS 578T (Breast Cancer), 10^−4 molar
Experimental: as §2

MDA-MB-435 = experiment: NCI screen, growth of human tumor cells: Breast Cancer MDA-MB-435; format: cell-based; conditions: MDA-MB-435, 10^−4 molar
Experimental: as §2

Structure (SMILES): O=S1(=O)OCCOS(=O)(=O)C1Cl [MWC 91-6, ethylene chloromethanedisulfonate]
- melting point: 85 to 88 °C

Structure (SMILES): O=S1(=O)OCCOS(=O)(=O)C1F [NSC 665942, ethylene fluoromethanedisulfonate]
- percent of growth of human tumor cells (SF-539; SF-539 (CNS Cancer), 10^−4 molar): 28%
- Percentage of cancers showing negative growth cancers tested (human cancer cells; 10^−4 M conc.): 10^−4 M conc. = 0/1 = 0%
- melting point: 84 to 86 °C

Structure (SMILES): CC=CC(=O)C1(C2=C(Cl)C(=O)c3ccccc3C2=O)S(=O)(=O)OCCOS1(=O)=O [NSC 731264, ethylene crotonoyl-[3-chloro-1,4-naptho-2-quinolyl]-1,1-methanedisulfonate]
- percent of growth of human tumor cells (HL-60 (TB)): 17%
- percent of growth of human tumor cells (K562): 19%
- percent of growth of human tumor cells (RPMI-8226): −18%
- percent of growth of human tumor cells (SR): 7%
- percent of growth of human tumor cells (AS49/ATCC): −36%
- percent of growth of human tumor cells (HOP-62): −56%
- percent of growth of human tumor cells (NCI-H460): 10%
- % Growth (NCI-H23): −72%
- percent of growth of human tumor cells (COLO205): 30%
- percent of growth of human tumor cells (HCT-116): 26%
- percent of growth of human tumor cells (HCT-15): −59%
- % Growth (KM12; KM12, 10^−4 molar): −68%
- % Growth (KM12; KM12, 10^−5 molar): −75%
- % Growth (KM12; KM12, 10^−6 molar): 66%
- percent of growth of human tumor cells (SF-268): 7%
- percent of growth of human tumor cells (SF-295): −57%
- % Growth (SF-539; SF-539, 10^−4 molar): −73%
- percent of growth of human tumor cells (SNB-75): −33%
- percent of growth of human tumor cells (U-251): −5%
- percent of growth of human tumor cells (M14): −6%
- % Growth (SK-MEL-2; SK-MEL-2, 10^−4 molar): 27%
- % Growth (SK-MEL-2; SK-MEL-2, 10^−5 molar): 49%
- percent of growth of human tumor cells (SK-MEL-28): −59%
- % Growth (SK-MEL-5; SK-MEL-5, 10^−4 molar): −53%
- % Growth (SK-MEL-5; SK-MEL-5, 10^−5 molar): 28%
- percent of growth of human tumor cells (UACC-62): −16%
- percent of growth of human tumor cells (OVCAR-3): 5%
- percent of growth of human tumor cells (OVCAR-4): 19%
- % Growth (OVCAR-5; OVCAR-5, 10^−4 molar): −49%
- % Growth (OVCAR-5; OVCAR-5, 10^−5 molar): 51%
- % Growth (OVCAR-5; OVCAR-5, 10^−6 molar): 39%
- % Growth (OVCAR-5; OVCAR-5, 10^−7 molar): 46%
- % Growth (OVCAR-5; OVCAR-5, 10^−8 molar): 52%
- % Growth (ACHN): −82%
- percent of growth of human tumor cells (RXF-393): −50%
- % Growth (SN12C; 10^−4 molar): −67%
- % Growth (SN12C; 10^−5 molar): −99%
- % Growth (SN12C; 10^−6 molar): −4%
- percent of growth of human tumor cells (UO-31): 12%
- % Growth (DU-145; DV-145, 10^−4 molar): −68%
- % Growth (DU-145; DV-145, 10^−5 molar): −96%
- % Growth (DU-145; DV-145, 10^−6 molar): 38%
- percent of growth of human tumor cells (MCF7/ADR-RES): 20%
- percent of growth of human tumor cells (BT-549): −52%
- percent of growth of human tumor cells (HS 578T): −12%
- % Growth (MDA-MB-435): −73%
- Percentage of cancers showing negative growth cancers tested (human cancer cells; 10^−4 M conc.): 65%
- Percentage of cancers showing negative growth cancers tested (human cancer cells; 10^−5 M conc.): 50%
- Percentage of cancers showing negative growth cancers tested (human cancer cells; 10^−6 M conc.): 25%
